Starred links: 1 amine or outer side, 2 acyl side, 3 side chain; linkers in the order of their positions; H or OH if unused. Positions of bridges follow the written chain, without caps; N, C: chain ends. Non-standard residues stand in square brackets, D forms with d. Residues, ends and D or L forms follow the SMILES beside them. d(αMeL) = CC(C)C[C@@](C)(N)C(=O)O; 2Thi = N[C@@H](Cc1cccs1)C(=O)O; Cha = N[C@@H](CC1CCCCC1)C(=O)O; Chg = N[C@H](C(=O)O)C1CCCCC1; Suc = O=C(CCC(=O)[*:2])[*:1]; NcPrGly = O=C(O)CNC1CC1; Nva = CCC[C@H](N)C(=O)O; Dap = NC[C@H](N)C(=O)O; Sar = CNCC(=O)O
Columns and labels:
Type in all cases: cell-based
[1] = target: T1, human Oxytocin (OTR) receptor (Homo sapiens, UniProt P30559); experiment: Calcium flux assay (FLIPR), agonist mode, CHO cells expressing human oxytocin receptor; details: for EC50: CHO cells, human OTR, calcium flux FLIPR, read-out: hOT EC50; for Emax: CHO, read-out: hOT efficacy (%); for Emax / hOT efficacy (%): maximum response normalized to endogenous full agonist = 100%
T1 construct: expressed in transfected cells
T1 sequence (P30559 1-389): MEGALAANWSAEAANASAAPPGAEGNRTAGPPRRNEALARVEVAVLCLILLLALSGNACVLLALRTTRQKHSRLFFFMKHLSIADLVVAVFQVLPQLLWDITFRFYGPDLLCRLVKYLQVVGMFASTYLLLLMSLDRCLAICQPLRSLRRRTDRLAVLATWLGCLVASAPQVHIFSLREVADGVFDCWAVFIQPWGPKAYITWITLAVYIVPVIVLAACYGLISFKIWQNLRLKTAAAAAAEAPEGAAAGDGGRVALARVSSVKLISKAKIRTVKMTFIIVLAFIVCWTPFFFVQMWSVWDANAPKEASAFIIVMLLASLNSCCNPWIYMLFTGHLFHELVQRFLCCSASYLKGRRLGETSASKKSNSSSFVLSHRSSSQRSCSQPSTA
Source text: (§1) Chines Hamster Ovary (CHO) cells were transfected with expression plasmids encoding either the human V1a, the human Oxytocin (OTR) or the human V2 receptor, the later in combination with the chimeric Gqs5 G protein to redirect the signal to Calcium flux. Stable cells were cloned by limiting dilution to yield monoclonal cell lines expressing either human V1a, human V2+Gqs5 or human OTR receptors and selected based on functional responses detected on a fluorometric imaging plate reader (FLIPR) detecting Calcium flux in the cell after receptor activation. The stable cell lines were grown in F-12 K Nutrient Mixture (Kaighns Modification), containing 10% foetal bovine serum (FBS), 1% penicillin-streptomycin, 1% L-[…], 200 ug/ml Geneticin at 37° C. in a 10% CO2 incubator at 95% humidity.
(§2) On the afternoon before the assay, cells were plated at a density of 50,000 cells/well into black 96 well plates with clear bottoms to allow cell inspection and fluorescence measurements from the bottom of each well. The density of cells was sufficient to yield a confluent monolayer the next day. Hanks balanced salt solution, without phenol red, containing 20 mM HEPES (pH 7.3) and 2.5 mM probenecid (assay buffer) was prepared fresh for each experiment. Compound dilutions were made using a Beckman Biomek 2000 laboratory automation workstation, in assay buffer containing 1% DMSO. The dye-loading buffer consisted of a final concentration of 2 μM Fluo-4-AM (dissolved in DMSO and pluronic acid) in assay buffer. The existing culture media was removed from the wells and 100 μl of the dye-loading buffer was added to each well and incubated for approximately 60 min at 37° C. in a 5% CO2 incubator at 95% humidity. Once dye-loaded, the cells were washed thoroughly on an Embla cell washer with the assay buffer to remove any unincorporated dye. Exactly 100 μl assay buffer was left in each well.
(§3) Each 96 well plate containing dye-loaded cells was placed into the FLIPR machine and the laser intensity set to a suitable level to detect low basal fluorescence. To test compounds as agonists, 25 μl diluted compound was added to the plate 10 seconds into the fluorescent measurements and fluorescent response was recorded for 5 minutes. The fluorescence data was normalized to the endogenous full agonist dose-response set at 100% for the maximum response and 0% for the minimum. Each agonist concentration-response curve was constructed using a four parameter logistic equation with Microsoft Excel XLFit as follows: Y=Minimum+((Maximum−Minimum)/(1+10^(LogEC50-X)nH)), where y is the % normalized fluorescence, minimum is the minimum y, maximum is the maximum y, logEC50 is the log10 concentration which produces 50% of the maximum induced fluorescence, x is the log10 of the concentration of the agonist compound and H is the slope of the curve (the Hill Coefficient). The maximum value gives the efficacy of the agonist test compound in percentage. The concentration of agonist that produced a half-maximal response is represented by the EC50 value, the logarithm of which yielded the pEC50 value.

human V1a receptor = target: T2, human V1a receptor (Homo sapiens, UniProt P37288); experiment: Calcium flux assay (FLIPR), agonist mode, CHO cells expressing human V1a receptor; details: read-out: hV1a EC50
T2 construct: expressed in transfected cells
Source text: as §1, §2, §3

human V2 receptor = target: T3, human V2 receptor (Homo sapiens, UniProt P30518); experiment: Calcium flux assay (FLIPR), agonist mode, CHO cells expressing human V2 receptor + Gqs5; details: for EC50: CHO cells, human V2 + chimeric Gqs5, calcium flux FLIPR, read-out: hV2 EC50; for Emax: CHO, read-out: hV2 efficacy (%); for Emax / hV2 efficacy (%): maximum response normalized to endogenous full agonist = 100%
T3 construct: expressed in transfected cells
Source text: as §1, §2, §3

T3 sequence (P30518 whole entry): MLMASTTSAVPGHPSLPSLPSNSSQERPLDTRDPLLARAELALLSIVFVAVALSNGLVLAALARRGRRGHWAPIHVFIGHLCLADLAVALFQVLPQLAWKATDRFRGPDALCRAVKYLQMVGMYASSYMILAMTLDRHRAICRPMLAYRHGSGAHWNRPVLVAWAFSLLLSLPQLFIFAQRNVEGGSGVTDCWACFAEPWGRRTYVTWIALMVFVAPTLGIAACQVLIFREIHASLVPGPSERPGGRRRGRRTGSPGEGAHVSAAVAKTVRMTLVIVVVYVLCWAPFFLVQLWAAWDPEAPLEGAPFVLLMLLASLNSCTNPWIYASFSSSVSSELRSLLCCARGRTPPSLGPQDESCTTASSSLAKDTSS
T2 sequence (P37288 whole entry): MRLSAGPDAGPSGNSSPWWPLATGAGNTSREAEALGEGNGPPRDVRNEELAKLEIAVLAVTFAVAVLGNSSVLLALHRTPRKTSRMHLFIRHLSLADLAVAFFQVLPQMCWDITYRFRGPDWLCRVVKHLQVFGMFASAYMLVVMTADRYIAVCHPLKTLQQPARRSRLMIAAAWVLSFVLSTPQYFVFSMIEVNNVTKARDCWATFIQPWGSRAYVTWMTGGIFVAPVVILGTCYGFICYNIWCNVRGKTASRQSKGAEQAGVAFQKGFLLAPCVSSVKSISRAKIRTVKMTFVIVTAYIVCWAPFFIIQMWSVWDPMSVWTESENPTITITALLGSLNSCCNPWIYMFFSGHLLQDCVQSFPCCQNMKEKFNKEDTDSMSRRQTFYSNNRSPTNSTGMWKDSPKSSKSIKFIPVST

Structure (SMILES)	EC50 [1] [nM]	Emax [1] [%]	EC50 (human V1a receptor) [nM]	EC50 (human V2 receptor) [nM]	Emax (human V2 receptor) [%]	hV2 efficacy (%) (human V2 receptor)	hOT efficacy (%) [1] [%]
CC[C@@H](C)[C@@H](NC(=O)CN(C)C(=O)[C@@H]1CNC(=O)CCC(=O)N[C@@H](Cc2ccc(O)cc2)C(=O)N[C@@H]([C@@H](C)CC)C(=O)N[C@@H](CCC(N)=O)C(=O)N[C@@H](CC(N)=O)C(=O)N1)C(=O)NCC(N)=O [Example 28] (YIQN[Dap][Sar][dI]G-NH2; linker N-5 via Suc)	0.5	109	> 27000	1380	119		
CC[C@H](C)[C@@H]1NC(=O)[C@H](Cc2ccc(O)cc2)NC(=O)CCC(=O)NC[C@@H](C(=O)N(C)CC(=O)N[C@H](C(=O)NCC(N)=O)C2CCCCC2)NC(=O)[C@H](CC(N)=O)NC(=O)[C@H](CCC(N)=O)NC1=O [Example 24] (YIQN[Dap][Sar][Chg]G-NH2; linker N-5 via Suc)	0.5	104	> 27000	152		120%	
CC[C@H](C)[C@@H]1NC(=O)[C@H](Cc2ccc(O)cc2)NC(=O)CCC(=O)NC[C@@H](C(=O)N(C)CC(=O)N[C@@H](CCSC)C(=O)NCC(N)=O)NC(=O)[C@H](CC(N)=O)NC(=O)[C@H](CCC(N)=O)NC1=O [Example 26] (YIQN[Dap][Sar]MG-NH2; linker N-5 via Suc)	0.5	107	> 27000	281		119%	
CC[C@H](C)[C@@H]1NC(=O)[C@H](Cc2ccc(O)cc2)NC(=O)CCC(=O)NC[C@@H](C(=O)N2CCC[C@H]2C(=O)N[C@H](C(=O)NCC(N)=O)C2CCCCC2)NC(=O)[C@H](CC(N)=O)NC(=O)[C@H](CCC(N)=O)NC1=O [Example 20] (YIQN[Dap]P[Chg]G-NH2; linker N-5 via Suc)	0.9	117	562	174		112%	
CC[C@H](C)[C@@H]1NC(=O)[C@H](Cc2ccc(O)cc2)NC(=O)[C@@H](N)CC(=O)NC[C@@H](C(=O)N(C)CC(=O)N[C@@H](CC(C)C)C(=O)NCC(N)=O)NC(=O)[C@H](CC(N)=O)NC(=O)[C@H](CCC(N)=O)NC1=O [Example 2] (H-DYIQN[Dap][Sar]LG-NH2; lactam 1-6)	4		> 27000				144
CCC[C@H](NC(=O)[C@@H]1CCCN1C(=O)[C@@H]1CNC(=O)CCC(=O)N[C@@H](Cc2ccc(O)cc2)C(=O)N[C@@H]([C@@H](C)CC)C(=O)N[C@@H](CCC(N)=O)C(=O)N[C@@H](CC(N)=O)C(=O)N1)C(=O)NCC(N)=O [Example 17] (YIQN[Dap]P[Nva]G-NH2; linker N-5 via Suc)	0.6	114	351	116		116/116%	
CC[C@H](C)[C@@H]1NC(=O)[C@H](Cc2ccc(O)cc2)NC(=O)CCC(=O)NC[C@@H](C(=O)N(C)CC(=O)N[C@@H](CC(C)C)C(=O)NCC(N)=O)NC(=O)[C@H](CC(N)=O)NC(=O)[C@H](CCC(N)=O)NC1=O [Example 3] (YIQN[Dap][Sar]LG-NH2; linker N-5 via Suc)	0.9	113	> 27000	612		130%	
CC[C@H](C)[C@@H]1NC(=O)[C@H](Cc2ccc(O)cc2)NC(=O)CCC(=O)NC[C@@H](C(=O)N(C)CC(=O)N[C@H](C(=O)NCC(N)=O)C(C)C)NC(=O)[C@H](CC(N)=O)NC(=O)[C@H](CCC(N)=O)NC1=O [Example 5] (YIQN[Dap][Sar]VG-NH2; linker N-5 via Suc)	0.7	111	> 27000	1130	123		
CC[C@H](C)[C@@H]1NC(=O)[C@H](Cc2ccc(O)cc2)NC(=O)CCC(=O)NC[C@@H](C(=O)N(C)CC(=O)N[C@@H](CC2CCCCC2)C(=O)NCC(N)=O)NC(=O)[C@H](CC(N)=O)NC(=O)[C@H](CCC(N)=O)NC1=O [Example 31] (YIQN[Dap][Sar][Cha]G-NH2; linker N-5 via Suc)	0.5	107	> 27000	199		126%	
CC[C@H](C)[C@@H]1NC(=O)[C@H](Cc2ccc(O)cc2)NC(=O)CCC(=O)NC[C@@H](C(=O)N(CC(=O)N[C@H](C(=O)NCC(N)=O)[C@@H](C)O)C2CC2)NC(=O)[C@H](CC(N)=O)NC(=O)[C@H](CCC(N)=O)NC1=O [Example 44] (YIQN[Dap][NcPrGly]TG-NH2; linker N-5 via Suc)	0.9	115					
CC[C@H](C)[C@@H]1NC(=O)[C@H](Cc2ccc(O)cc2)NC(=O)CCC(=O)NC[C@@H](C(=O)N2CCC[C@H]2C(=O)N[C@](C)(CC(C)C)C(=O)NCC(N)=O)NC(=O)[C@H](CC(N)=O)NC(=O)[C@H](CCC(N)=O)NC1=O [Example 7] (YIQN[Dap]P[d(αMeL)]G-NH2; linker N-5 via Suc)	3						101
CC[C@H](C)[C@@H]1NC(=O)[C@H](Cc2ccc(O)cc2)NC(=O)CCC(=O)NC[C@@H](C(=O)N2CCC[C@H]2C(=O)N[C@@H](Cc2cccs2)C(=O)NCC(N)=O)NC(=O)[C@H](CC(N)=O)NC(=O)[C@H](CCC(N)=O)NC1=O [Example 21] (YIQN[Dap]P[2Thi]G-NH2; linker N-5 via Suc)	4						126
CC[C@H](C)[C@@H]1NC(=O)[C@H](Cc2ccc(O)cc2)NC(=O)CCC(=O)NC[C@@H](C(=O)N2CCC[C@H]2C(=O)N[C@@H](CCSC)C(=O)NCC(N)=O)NC(=O)[C@H](CC(N)=O)NC(=O)[C@H](CCC(N)=O)NC1=O [Example 8] (YIQN[Dap]PMG-NH2; linker N-5 via Suc)	1						134
CC[C@H](C)[C@@H]1NC(=O)[C@H](Cc2ccc(O)cc2)NC(=O)CCC(=O)NC[C@@H](C(=O)N(C)CC(=O)N[C@@H](Cc2cccs2)C(=O)NCC(N)=O)NC(=O)[C@H](CC(N)=O)NC(=O)[C@H](CCC(N)=O)NC1=O [Example 34] (YIQN[Dap][Sar][2Thi]G-NH2; linker N-5 via Suc)	3						106
CC[C@H](C)[C@@H]1NC(=O)[C@H](Cc2ccc(O)cc2)NC(=O)CCC(=O)NC[C@@H](C(=O)N2CCC[C@H]2C(=O)N[C@@H](CO)C(=O)NCC(N)=O)NC(=O)[C@H](CC(N)=O)NC(=O)[C@H](CCC(N)=O)NC1=O [Example 11] (YIQN[Dap]PSG-NH2; linker N-5 via Suc)	3						128
CC[C@H](C)[C@@H]1NC(=O)[C@H](Cc2ccc(O)cc2)NC(=O)CCC(=O)NC[C@@H](C(=O)N(C)CC(=O)N[C@@H](Cc2c[nH]c3ccccc23)C(=O)NCC(N)=O)NC(=O)[C@H](CC(N)=O)NC(=O)[C@H](CCC(N)=O)NC1=O [Example 36] (YIQN[Dap][Sar]WG-NH2; linker N-5 via Suc)	2						111
CC[C@H](C)[C@@H]1NC(=O)[C@H](Cc2ccc(O)cc2)NC(=O)CCC(=O)NC[C@@H](C(=O)N(C)CC(=O)N[C@@H](CCC(N)=O)C(=O)NCC(N)=O)NC(=O)[C@H](CC(N)=O)NC(=O)[C@H](CCC(N)=O)NC1=O [Example 32] (YIQN[Dap][Sar]QG-NH2; linker N-5 via Suc)	5						112

From patent publication US9957298B2, “Peptides as oxytocin agonists” (Hoffmann-La Roche Inc., priority 2014, dated 2018)
